Source: patent US8822535B2 (priority 2005, dated 2014)
Several values for one entry are separate records, joined by “and”; a condition that tells them apart may be missing. Equal values may be shown once. Read-outs that look alike come from different tables or passages of the source.

Key:
[1] = test system: zebrafish (D. rerio) embryos; assay: Zebrafish embryo heart rate screening assay; type: in vivo
Excerpt: These embryos are transparent, allowing one to view, using a dissecting microscope with a 4-20 times power lense, the heart beat and resultant blood flow into the main vessel along the back and into the tail. Heart rate in these animals is an indicator of the metabolic activity of the organism, such that a reduction in the heart rate signifies a reduction in metabolism. Embryos were dissected from their egg casings and distributed five per well in flat bottomed polystyrene tissue culture plates and incubated in 1 mL of standard fish water. The fishwater is composed of 1 teaspoon Instant Ocean (artificial sea water mixture, Aquarium Systems, Inc.) per 5 gallons. Calcium chloride is adjusted to 150 ppm and sodium bicarbonate to ˜100 ppm.

mice [2] = type: in vivo, mouse (C57BL6/J)
Experimental: The same flow rates were used as described above (i.e., […] in a 0.5 L chamber).
Experiments were conducted to test the ability of a mouse in a ‘hibernation-like’ state to survive in conditions where it would normally die. The adverse condition was hypoxia, which the literature states that mice (C57BL6/J males) can live in for a maximum of 20 minutes at 5% Oxygen.
The hypoxic exposure was timed (indicated below) and viability of the mice was determined.

Drosophila melanogaster = assay: Anoxia tolerance of Drosophila melanogaster after CO2 / H2S treatment; type: in vivo; settings: adult flies
Experimental: Adult flies were introduced into 35 mL tubes made of glass with a gas-tight rubber stopper (Balsh tubes). This was usually accomplished by anesthetizing flies with CO2, moving groups of flies to vials with food to recover for at least 2 hours, and then transferring them into the Balsh tube. To exchange the gaseous environment in the Balsh tube, two 18 gauge needles were inserted into the rubber stopper, and gas is blown into one of the needles at 100 mL/min. To prevent dessication, gasses were humidified by bubbling through 10 mL of water before passing it through the Balsch tube. The water in the bubbler is equilibrated with the gas for at least 20 minutes before starting the experiment.
For “stopped-flow” experiments, gas exchange proceeded for 60 minutes before sealing the tube. For “low-flow” experiments, gas flow continued throughout the experiment. CO2 was from the house source (100%), and anoxic environments were established by flushing out room air with 100% nitrogen (N2). Care was taken to prevent introduction of room air into the system while switching the atmosphere from CO2 to N2.
After anoxic treatment, oxygen was reintroduced into the Balsh tube by flushing with house air for 20 minutes. The rubber stopper was then removed and a food vial is inverted over the top of the Balsh tubes with Parafilm. […] Viability was scored at least 18 hours after the end of anoxic treatment. After two weeks, if the food vials contained larvae and/or pupae the flies were considered to be fertile.

mice [3] = type: in vivo, mouse (C57Bl/6)
rats [4] = type: in vivo, rat
Experimental: After surgical implantation of catheters and recovery, blood was removed from conscious animals in 40 minutes. […] Three hours after the end of the bleed, surviving animals were given one shed-blood volume of lactated ringers solution intravenously.

mice [5] = assay: Gas matrix: metabolic flexibility in altered gas environments, mice; type: in vivo, mouse; settings: 0.01% in room air, ambient 7 to 10° C., 6-hour treatment
Experimental: (§1) Metabolic flexibility was evaluated in mice rats and dogs using altered gas environments. Three parameters were used to define this reduction in metabolism including changes in carbon dioxide production, oxygen consumption measured by respirometry, and core temperature as measured using telemetry. In experiments with mice and rats the animals were placed into sealed chambers with one gas import and one gas export. For dogs a mask was placed over the snout of the animal with two hoses (import and export) attached to the mask. The flow rate of gas for each of the animals mice—500 cc per minute, rats—2 liters per minute, and dogs 40 liters per minute. Each atmosphere was constructed from compressed gas by dilution into room air unless otherwise noted. For rat and mouse experiments the ambient temperature was 7 to 10° C. during exposure to the test gases. For dogs ambient temperature was room temperature (22° C.).
(§2) Evidence of depression in metabolic rate of greater than 5-fold as judged by carbon dioxide production or oxygen consumption during a 6-hour treatment is described by “Yes”; […]; “N/D” denotes experiments not done. The temperature drop in the dog experiment (Carbon dioxide+low oxygen+Helium) was approximately 1.5° C. over the course of 30 minutes of exposure. This drop in temperature was considered significant because the dog was 12 kg and no such temperature drop was seen during extensive baseline recording of the animal in room air.

dogs = assay: Gas matrix: metabolic flexibility in altered gas environments, dogs; type: in vivo, dog; settings: 0.85% in room air, mask, room temperature (22° C.)
Experimental: as §1, §2

mice [6] = assay: Cyanide exposure experiment in mice; type: in vivo, mouse; settings: 80 ppm in room air at room temperature
Experimental: To measure metabolic effects of HCN, mice were exposed to increasing concentrations of HCN starting at 1 ppm. Oxygen (O2) consumption, carbon dioxide (CO2) production, body core temperature (BCT) and behavior were measured or evaluated. […]. A metabolic effect is defined as a 10% change in less than 10 minutes in any of the assay values described above.

rats [7] = test system: rats
Experimental: On the day of the experiment, catheters were surgically implanted into the right femoral artery and vein. Catheters exited behind scapulae. Rats were administered buprenorphine post-surgically and allowed to recover.
The anti-coagulant drug heparin (80-100 units) was administered intravenously as a bolus to decrease the clotting ability of the blood and enhance hemorrhage. […] Catheters, temperature probe, and gas sampling tube were passed through a hole drilled in the middle of the lid. Temperature was maintained at approximately isothermal temperature (27+/−2° C.).
The hemorrhage model was defined by the removal of 60% of total body blood over the course of a 40 minute bleed. Blood was removed using a peristaltic pump.
Blood was removed at the calculated rate via the femoral catheter artery. Blood was weighed as it was removed.
Metabolic rate was determined by measuring CO2 production (Licor Li7000). Temperature and CO2 data were collected (ADI PowerLab). Arterial blood values were measured (I-Stat blood chemistry analyzer). Following the bleed, animals were placed in a cage for three hours and observed. At the end of three hours, surviving rats were given lactated ringers ad libitum. For non-surviving animals, time of death was declared when animals stopped breathing and CO2 production ceased. […]

C. elegans nematodes = settings: in vivo
[8] = in vivo; cited from earlier work

S [H2S, hydrogen sulfide]
heart rate after recovery ([1]; 24 hours after initial exposure, solution replaced with normal fishwater after five hours): 160-200 beats per minute
heart beats ([1]; 48 hour old embryos, hydrogen sulfide-containing fishwater (approximately 0.1 molar), 2-3 hours following exposure): 60-80 beats per minute
Time in Hypoxia (mice [2]; ambient 20° C., 5 hrs in 80 ppm H2S prior, 4% oxygen, result life): 28 min
Time in Hypoxia (mice [2]; ambient 20° C., 5 hrs in 80 ppm H2S prior, 5.00% oxygen, result life): 60 min
Time in Hypoxia (mice [2]; ambient 20° C., 5 hrs in 80 ppm H2S prior, 5.20% oxygen, result life): 11 min
Time in Hypoxia (mice [2]; ambient 20° C., 5.5 hrs in 80 ppm H2S prior, 5.00% oxygen, result life): 25 min
Time in Hypoxia (mice [2]; ambient 24° C., 80 ppm H2S simultaneous with hypoxia, 5.10% oxygen, result dead): 10 min
Time in Hypoxia (mice [2]; ambient 24° C., 8 minutes in 80 ppm H2S prior, 4.00% oxygen, result dead): 8 min
Time in Hypoxia (mice [2]; ambient 24° C., 8 minutes in 80 ppm H2S prior, 4.50% oxygen, result dead): 23 min
Time in Hypoxia (mice [2]; ambient 24° C., 8 minutes in 80 ppm H2S prior, 5% oxygen, result dead): 20 min
Time in Hypoxia (mice [2]; ambient 24° C., 8 minutes in 80 ppm H2S prior, 5.00% oxygen, result life): 50 min
Time in Hypoxia (mice [2]; ambient 24° C., 10 minutes in 90 ppm H2S prior, 5% oxygen, result dead): 56 min
Time in Hypoxia (mice [2]; ambient 30° C., 8 minutes in 80 ppm H2S prior, 4.50% oxygen, result dead): 6 min
time survived in hypoxia (mice [2]; pre-equilibrated to 80 ppm H2S for 3 hours, 5.2% oxygen, still doing well 3 weeks later): 11 min
survival (Drosophila melanogaster; 50 ppm H2S in room air prior to 18.5 h anoxia): 25%
survival (Drosophila melanogaster; 50 ppm H2S present in the CO2 pretreatment and removed as anoxia is established, 20 h): 35%
survival (Drosophila melanogaster; CO2 10 min, H2S/CO2 10 min, N2/H2S 10 min, then N2, 15 h anoxic exposure, low-flow): 50%
drop in CO2 production during hypoxia from pre-exposure level (mice [3]; 150 ppm H2S 20 minutes, then 5% O2 for several hours (FIG. 25)): approximately 50 fold
CO2 output (mice [3]; 150 ppm H2S 20 minutes, then several hours of 5% O2, pre-exposure approximately 2500 ppm): approximately 50 ppm
survival time at lethal oxygen tensions (mice [3]; 150 ppm H2S prior to oxygen tension reduced to between 5% and 2.5% (FIG. 24)): at least 60 minutes
reduction in CO2 evolution (mice [3]; pre-treatment with H2S, new lower baseline): 50-60%
rats surviving hemorrhage and 3 hour shock period (rats [4]; 300 ppm H2S): 6/7
Complete recovery (rats [4]; 300 ppm H2S from 30% blood loss to end of 40 minute bleed): 85.7% (6/7)
CO2 production (VCO2) (rats [4]; 15 minutes post bleed): 17 ± 3 mL/min/kg
Blood CO2 content (pCO2) (rats [4]; End of bleed): 35 +/− 6 mmHg
Blood Lactate (rats [4]; End of bleed): 6.6 ± 1 mmol/L
Blood base excess (rats [4]; End of bleed): -5 ± 4 mmol/L
Blood bicarbonate content ([HCO3]) (rats [4]; End of bleed): 21 ± 3 mmol/L
Blood pH (rats [4]; End of bleed): 7.41 +/− 0.02
CO2 production (VCO2) (rats [4]; End of bleed): 16 ± 2 mL/min/kg
CO2 production (VCO2) (rats [4]; Mid-bleed): 20 ± 2 mL/min/kg
Blood CO2 content (pCO2) (rats [4]; Pre-bleed): 45 +/− 6 mmHg
Blood Lactate (rats [4]; Pre-bleed): 1.4 ± 0.5 mmol/L
Blood base excess (rats [4]; Pre-bleed): 8 ± 2 mmol/L
Blood bicarbonate content ([HCO3]) (rats [4]; Pre-bleed): 32 ± 3 mmol/L
Blood pH (rats [4]; Pre-bleed): 7.46 +/− 0.03
CO2 production (VCO2) (rats [4]; Pre-bleed): 25 ± 4 mL/min/kg
Time to death of non-survivors (rats [4]; after the end of the bleed, 300 ppm H2S): 174 min and 174 (1/7) min
depression in metabolic rate, Mouse (mice [5]): Yes 0.01% (Evidence of depression in metabolic rate of greater than 5-fold as judged by carbon dioxide production or oxygen consumption during a 6-hour treatment is described by “Yes”)
depression in metabolic rate, Dog (dogs): No 0.85% (“No” (reduction or less than a 5-fold reduction in these values is described as such)
core temperature (mice [6]): approximately 28 °C
survival of the hemorrhage (rats [7]; 2000 ppm H2S in room air at 20 minutes of the 40 minute bleed, generally 1 to 2 minutes, 7 out of 8): 88%
signs during exposure (rats [7]; rat, in vivo): apnea and dystonia
lethality (C. elegans nematodes): considerable lethality
progeny (C. elegans nematodes): same number of progeny
LD50 [8]: approximately 700 ppm
adverse effects, gross and histopathological examination [8]: no observed adverse effect
behavioral toxicity [8]: Significant reductions in motor activity, water maze performance and body temperature
perinatal toxicity [8]: no neuropathological effects
tolerability [8]: innocuous
